# Measured values: patent US20260216294A1, “BETA 2-ADRENERGIC RECEPTOR AGONISTS FOR TREATMENT OR PREVENTION OF MUSCLE WASTING” (ATROGI AB, priority 2023, published 2026)
# How the values were obtained:
# L6-myotubes [1] = experiment: Glucose uptake in differentiated L6-myotubes (Biological Example 2); format: cell-based; conditions: for Emax at 10 µM: read-out: Biological example 2 (GU)
# How it was run: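 Uptake was quantified as radioactivity in 0.2 M NaOH lysates after a 10 min pulse of 50 nM ^3H-2-deoxyglucose. The pulse followed two agonist exposures at 1×10^−5 M final (isoprenaline or test compound): 1 h 40 min, then 20 min in glucose-free medium after washing. L6 myotubes had been starved overnight in medium with 0.5% fatty-acid-free BSA.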
# L6-myotubes [2] = experiment: Measurement of intracellular cAMP levels in differentiated L6-myotubes (Biological Example 3); format: cell-based; conditions: for Emax at 10 µM: 0.25 h
# How it was run: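 Intracellular cAMP quantified by AlphaScreen after ethanol extraction and lysis of L6 myotubes. Cells were serum-starved overnight, then exposed for 15 min to compound (final 1×10^−5 M) or isoprenaline in IBMX-containing (1 mM) HBSS buffer, pH 7.4.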
# [3] = glucose uptake in differentiated L6-myotubes, compound at 10 μM, activity relative to isoproterenol at 10 μM
# [4] = intracellular cAMP in differentiated L6-myotubes, compound at 10 μM, activity relative to isoproterenol at 10 μM
# [5] = glucose uptake, compound at 10 μM relative to isoproterenol at 10 μM
# [6] = intracellular cAMP, compound at 10 μM relative to isoproterenol at 10 μM
SMILES,Emax at 10 µM (L6-myotubes [1]; [3]),Emax at 10 µM (L6-myotubes [2]; [4]),Emax at 10 µM (L6-myotubes [1]; [5]),Emax at 10 µM (L6-myotubes [2]; [6]),further results
"CC(C)(C[C@H]1CC[C@@H](C(=O)O)CC1)NC[C@H](O)c1cncc(F)c1 [Compound 324, (1S,4s)-4-{2-[(R)-2-(5-fluoro-3-pyridyl)-2-hydroxyethylamino]-2-methylpropyl} cyclohexanecarboxylic acid]",25 to 50%,< 25%,,,
CC12CC(C1)[C@H]([C@H](O)c1ccccc1F)N2 [Compound 210],> 75%,> 75%,,,
"O[C@H](c1cccc(F)c1)C12CCC(COCc3ccc(F)cc3)(CC1)N2 [Compound 439, (R)-(m-fluorophenyl)(4-{[(p-fluorophenyl)methoxy]methyl}-7-azabicyclo[[2.2.1]]hept-1-yl)methanol]",> 75%,25 to 50%,,,
"Cc1ncccc1[C@@H](O)CNC(C)(C)C[C@H]1CC[C@H](NS(C)(=O)=O)CC1 [Compound 435, (R)-2-{1,1-dimethyl-2-[(1r,4R)-4-(mesylamino)cyclohexyl]ethylamino}-1-(2-methyl-3-pyridyl)-1-ethanol]",25 to 50%,< 25%,,,
CS(=O)(=O)N[C@H]1CC[C@H](CNC[C@H](O)c2cccc(F)c2)CC1 [Compound 311],50 to 75%,< 25%,,,
"CCC[C@@H](C)NC[C@H](O)c1cccc(F)c1 [Compound 50, (R)-2-[(R)-1-methylbutylamino]-1-(m-fluorophenyl)-1-ethanol]",,,> 75%,< 25%,
"CCCCNC[C@H](O)c1ccc(F)cc1O [Compound 81, (R)-2-(butylamino)-1-(4-fluoro-2-hydroxyphenyl)-1-ethanol]",,,50 to 75%,< 25%,
CS(=O)(=O)N(Cc1ccccc1)c1ccc(CC23CCC([C@H](O)c4cccc(F)c4)(CC2)N3)cc1 [Compound 473],25 to 50%,< 25%,,,
"Cn1ccc([C@@H](O)CNC(C)(C)C)cc1=O [Compound 98, 4-[(R)-2-(tert-butylamino)-1-hydroxyethyl]-1-methyl-2(1H)-pyridinone]",,,> 75%,< 25%,
"O[C@@H](c1cncc(F)c1)[C@H]1CC[C@H](Cc2ccc(Cl)cc2)N1 [Compound 405, (S)-{(2R,5R)-5-[(p-chlorophenyl)methyl]-2-pyrrolidinyl}(5-fluoro-3-pyridyl)methanol]",> 75%,< 25%,,,
"C[C@H]1CC[C@@H]([C@@H](O)c2cccc(O)c2)N1 (racemic) [Compound 41, Racemic mixture of m-{(R)-[(2R,5R)-5-methyl-2-pyrrolidinyl] hydroxymethyl}phenol and m-{(S)-[(2S,5S)-5-methyl-2-pyrrolidinyl] hydroxymethyl}phenol]",,,> 75%,< 25%,
CC(C)(C[C@H]1CC[C@@H](NC(=O)C2CCC2)CC1)NC[C@H](O)c1cccc(F)c1 [Compound 448],50 to 75%,< 25%,,,
CC(=O)N[C@H]1CC[C@H](C[C@@H]2CC[C@H]([C@@H](O)c3cccc(F)c3)N2)CC1 [Compound 486],50 to 75%,< 25%,,,
"CC(C)(CC[C@H]1CC[C@H](O)CC1)NC[C@H](O)c1ccccc1F [Compound 319, (R)-2-{1,1-dimethyl-3-[(1r,4S)-4-hydroxycyclohexyl]propylamino}-1-(o-fluorophenyl)-1-ethanol]",> 75%,< 25%,,,
CC1(C)CC[C@H]([C@H](O)c2cccc(F)c2)N1 [Compound 110],,,> 75%,< 25%,
"O[C@@H](c1cccc(F)c1)C12CCC(C/C=C/c3ccccc3)(CC1)N2 [Compound 533, (S)-{4-[(E)-3-phenyl-2-propenyl]-7-azabicyclo[[2.2.1]]hept-1-yl}(m-fluorophenyl)methanol]",< 25%,< 25%,,,

SMILES,Emax at 10 µM (L6-myotubes [1]; [3]),Emax at 10 µM (L6-myotubes [2]; [4]),Emax at 10 µM (L6-myotubes [1]; [5]),Emax at 10 µM (L6-myotubes [2]; [6]),further results
"O[C@H](c1cncc(F)c1)[C@H]1CC[C@H](Cc2ccc(Cl)cc2)N1 [Compound 406, (R)-{(2R,5R)-5-[(p-chlorophenyl)methyl]-2-pyrrolidinyl}(5-fluoro-3-pyridyl)methanol]",> 75%,< 25%,,,
CC1(C)CC[C@H]([C@@H](O)c2cncc(F)c2)N1 [Compound 156],,,< 25%,< 25%,
CC(=O)N(C)[C@H]1CC[C@@H](CC(C)(C)NC[C@H](O)c2cncc(F)c2)CC1 [Compound 492],,,,,Biological example 2 (GU) (L6-myotubes [1]; [3]): + (if it is between 50 and 25% it is denoted with +); Biological example 3 (CAMP) (L6-myotubes [2]; [4]): − (if it less than 25% it is denoted with −)
"O[C@@H](c1cccc(F)c1)[C@H]1CC[C@@H](Cc2ccc(Cl)cc2)N1 [Compound 391, (S)-{(2R,5S)-5-[(p-chlorophenyl)methyl]-2-pyrrolidinyl}(m-fluorophenyl)methanol]",50 to 75%,< 25%,,,
"CCCCNC(C)C(O)c1ccc(O)cc1 (stereo not shown) [Compound 12, 2-(butylamino)-1-(p-hydroxyphenyl)-1-propanol]",,,50 to 75%,< 25%,
CC(C)(C[C@H]1CC[C@H](NC(=O)C2CC2)CC1)NC[C@H](O)c1cccc(F)c1 [Compound 432],> 75%,> 75%,,,
"O[C@H](c1cccc(F)c1)[C@H]1CC[C@@H](Cc2ccc(Cl)cc2)N1 [Compound 392, (R)-{(2R,5S)-5-[(p-chlorophenyl)methyl]-2-pyrrolidinyl}(m-fluorophenyl)methanol]",> 75%,< 25%,,,
CC(=O)N[C@H]1CC[C@H](CC(C)(C)NC[C@H](O)c2cccnc2C)CC1 [Compound 434],> 75%,< 25%,,,
CC(=O)N[C@H]1CC[C@H](CC(C)(C)NC[C@@H](O)c2cccc(C#N)n2)CC1 [Compound 427],< 25%,< 25%,,,
CCC[C@@H]1CCC[C@@H]([C@@H](O)c2cccc(O)c2)N1 [Compound 113],,,50 to 75%,< 25%,
"CC12CCC([C@H](O)c3cccc(F)c3)(CC1)N2 [Compound 179, (R)-(m-fluorophenyl)(4-methyl-7-azabicyclo[[2.2.1]]hept-1-yl)methanol]",,,50 to 75%,< 25%,
"O[C@@H](CNCC[C@H]1CC[C@@H](OCc2ccccc2)CC1)c1cncc(F)c1 [Compound 291, (R)-1-(5-fluoro-3-pyridyl)-2-{2-[(1s,4S)-4-(benzyloxy)cyclohexyl]ethylamino}-1-ethanol]",50 to 75%,< 25%,,,
CCC[C@H]1CCC[C@H]([C@H](O)c2cccc(F)c2)N1 [Compound 69],,,50 to 75%,< 25%,
"CCCCNCC(O)c1cc(Cl)c(N)c(C(F)(F)F)c1 (stereo not shown) [Compound 32, 1-[4-amino-3-chloro-5-(trifluoromethyl)phenyl] -2-(butylamino)-1-ethanol]",,,> 75%,25 to 50%,
"CC12CC(C1)[C@H]([C@H](O)c1cccc(N)c1F)N2 [Compound 241, (R)-{(R)-1-methyl-2-azabicyclo[2.1.1]hex-3-yl}(3-amino-2-fluorophenyl)methanol]",> 75%,< 25%,,,
"CCC[C@H]1CCC[C@H]([C@@H](O)c2ccccc2F)N1 [Compound 106, (S)-[(2R,6S)-6-propyl-2-piperidyl](o-fluorophenyl)methanol]",,,25 to 50%,< 25%,
